Here are results for one compound from ChEMBL document CHEMBL1201862, “PubChem BioAssay data set” (2004).

Each structure is given as a SMILES string. Active and inactive are the calls of the source. Cut-off read from the data, not from the text of the source: active = IC50 of 10 µM or less and inactive = more.

The target of test [1] is T1, Neuropeptides B/W receptor type 1 (Homo sapiens, UniProt P48145).
T1 sequence (P48145 whole entry): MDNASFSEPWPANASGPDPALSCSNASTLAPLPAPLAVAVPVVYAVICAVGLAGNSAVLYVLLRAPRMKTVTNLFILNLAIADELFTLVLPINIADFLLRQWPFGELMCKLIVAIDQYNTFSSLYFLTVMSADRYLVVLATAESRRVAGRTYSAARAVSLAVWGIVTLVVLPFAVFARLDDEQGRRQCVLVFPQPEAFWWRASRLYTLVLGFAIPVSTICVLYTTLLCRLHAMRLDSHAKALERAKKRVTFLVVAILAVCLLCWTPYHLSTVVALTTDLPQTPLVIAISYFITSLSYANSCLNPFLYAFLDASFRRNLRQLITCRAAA
Description: GPR7 antagonist potency, late-stage follow-up, cell-based, fluorescence, dose response, set 6 (AID 588583). Format: functional.

Test [2] concerns the target Melanin-concentrating hormone receptor 1 (Homo sapiens, UniProt Q99705). Kind of test: Late-stage fluorescence-based counterscreen for antagonists of the G-protein coupled receptor 7 (GPR7): cell-based dose response assay to identify antagonists of the melanin-concentrating hormone receptor 1 (MCHR1) Set 6. It is filed as functional. In general terms: Counterscreens check selectivity or assay interference.

Chain of Melanin-concentrating hormone receptor 1 (Q99705 whole entry): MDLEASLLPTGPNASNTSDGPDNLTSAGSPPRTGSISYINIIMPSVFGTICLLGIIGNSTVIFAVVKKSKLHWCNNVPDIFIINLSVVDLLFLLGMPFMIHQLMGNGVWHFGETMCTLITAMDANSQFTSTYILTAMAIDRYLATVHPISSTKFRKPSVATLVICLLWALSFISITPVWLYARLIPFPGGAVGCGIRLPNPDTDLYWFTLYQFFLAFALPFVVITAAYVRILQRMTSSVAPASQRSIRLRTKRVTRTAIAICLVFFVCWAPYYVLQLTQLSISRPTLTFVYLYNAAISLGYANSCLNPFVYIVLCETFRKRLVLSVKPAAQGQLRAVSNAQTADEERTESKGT

As usually defined, the IC50 is the concentration at which inhibition is half-maximal. In the case of `COc1ccc(-c2c(Br)cnn(Cc3cccc4ccccc34)c2=O)cc1`, the IC50 in test [1] and in test [2] was 974 nM (active) in each case.
